One may read the Kd as a measure of binding affinity in units of concentration. As usually defined, the koff is the first-order rate constant of dissociation. The kon is the rate constant with which the complex forms.

Consider four compounds from publication PMC6941110, “Mutation of Aspartate 238 in FAD Synthase Isoform 6 Increases the Specific Activity by Weakening the FAD Binding” (International Journal of Molecular Sciences, 2019).

SMILES strings stand for the structures. Like-named read-outs stand apart in the source and are kept apart here.

Assay [1] deals with T1, hFADS6 (human FAD synthase isoform 6) (Homo sapiens, UniProt Q8NFF5, D505A).
T1 construct: gene FLAD1; 320-residue isoform 6, FADSy domain only, lacks N-terminal FADHy domain; monomer
T1 sequence (Q8NFF5 268-587 D505A): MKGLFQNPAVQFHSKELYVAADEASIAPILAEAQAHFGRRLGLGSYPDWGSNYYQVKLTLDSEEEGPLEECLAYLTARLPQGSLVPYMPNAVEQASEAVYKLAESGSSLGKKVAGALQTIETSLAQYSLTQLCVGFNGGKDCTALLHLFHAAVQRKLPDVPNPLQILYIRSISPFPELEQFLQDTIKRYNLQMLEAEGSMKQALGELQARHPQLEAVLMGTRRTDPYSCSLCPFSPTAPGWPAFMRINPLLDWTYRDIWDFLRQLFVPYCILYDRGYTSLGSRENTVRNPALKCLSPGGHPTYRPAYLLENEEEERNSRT
Nature of the assay: inhibition of FADS activity. Conditions: inhibitor. The class given is biochemical.

Assay [2] has as its target T2, hFADS6 (human FAD synthase isoform 6) (Homo sapiens, UniProt Q8NFF5).
T2 construct: gene FLAD1; 320-residue isoform 6, FADSy domain only, lacks N-terminal FADHy domain; monomer
Nature of the assay: stopped-flow flavin fluorescence, koff/kon. Format: binding.

Assay [3] deals with T2, hFADS6 (human FAD synthase isoform 6). Nature of the assay: biochemical. Set-up: Stopped-flow flavin fluorescence, FMN binding with 250 uM ATP; kon/koff from kobs1 versus flavin concentration, 25 °C, pH 7.0. The following applies: with 250 uM ATP. The protocol: (§1) Pre-steady-state kinetic experiments were performed using stopped-flow spectroscopy on an Applied Photophysics SX17.MV spectrophotometer using the Pro-Data SX software (Applied Photophysics Ltd. Leatherhead, Surrey, UK). The fluorescence of flavins was measured in a continuous assay with an excitation wavelength of 445 nm, while the emission was recovered using a >530 nm cut-off filter and the [compound left out] was set to 350 V. Then, 100 nM hFADS6 samples were mixed with samples that contained increasing concentrations of FMN or FAD (which varied in the range 0.025–1 μM), in the absence and in the presence of saturating concentrations of their respective co-substrates ATP or PPi (250 µM). All the indicated concentrations are final ones in the stopped-flow observation cell. Measurements were carried out at 25 °C in 50 mM HEPES/NaOH, 10 mM MgCl2, pH 7.0, 5 mM β-mercaptoethanol. At least three reproducible kinetic traces of changes in fluorescence were recorded for each condition and fitted to exponential equations (usually one or two exponentials were used) (2) y=∑Aie^−kobs,it where Ai and kobs,i represent the amplitude and the observed rate constant, respectively, for each of the processes (i) that contribute to the overall time-dependent fluorescence change for each experimental condition. […] In mixtures containing substrates of the forward reaction, ATP and FMN, the relevant decrease in the flavin fluorescence is indicative of internalization of the isoalloxazine or FMN transformation into FAD. These observations also agree with ATP binding to the protein prior to FMN in the bi-bi ordered kinetic mechanism reported for hFADSs. Nonetheless, features for this fluorescence decay also differ between WT and D238A hFADSs (Figure 8a). […] The first exponential decay has observed rate constants (kobs1) in the low seconds range which depend linearly on the FMN concentration, while its amplitude is concentration independent (Supplementary Figure S3a,b). kobs2 for the second exponential decay indicate a slower process nearly FMN concentration independent, with amplitude increasing with FMN concentration (Supplementary Figure S3a,b). […] The derived Kd^FMN, 0.094 ± 0.004 µM, agrees well with the above derived Km^FMN for WT hFADS6. […] Finally, the continuous and linear flavin fluorescence decay established after the exponential processes fits well with the settlement of the catalytic steady-state transformation of FMN into FAD, showing, in addition, rates in the ranges of Vmax and kcat. […] Nonetheless, fluorescence decay related to FMN transformation into FAD follows similar traits to the WT ones (Fig  Figure 8 Dissection of the kinetics of the substrates binding process from the catalytic reaction by stopped-flow spectrophotometry. Normalized kinetic traces for the flavin fluorescence evolution upon mixing the protein with substrates for the (a) forward (ATP + FMN) and (b) reverse (PPi + FAD) reactions. Traces for WT and D238A hFADS are shown in colored grey and red scales as a function of the flavin given concentrations. Normalized signals regarding the fluorescence of the forward reaction at maximum FMN concentration are shown. Kinetic traces were obtained at 25 °C in mixtures containing 100 nM of protein and 250 µM of either ATP (a) or PPi (b) in 50 mM HEPES/NaOH, 10 mM MgCl2, pH 7.0, 5 mM β-mercaptoethanol. All concentrations are final after mixing.

Assay [4] addresses T1, hFADS6 (human FAD synthase isoform 6). Kind of assay: biochemical. Set-up: Stopped-flow flavin fluorescence, FMN binding with 250 uM ATP; kon/koff from kobs1 versus flavin concentration, 25 °C, pH 7.0. Conditions: error at least 30%, with 250 uM ATP. The protocol:
as §1

The target is the same in assay [5]. Kind of assay: stopped-flow flavin fluorescence, koff/kon. Format: binding. The text has this:
stopped-flow flavin fluorescence, koff/kon on hFADS6 (human FAD synthase isoform 6) | obtained values are again indicative of the mutant binding FAD slower and weaker than the WT

Assay [6] deals with T2, hFADS6 (human FAD synthase isoform 6). Nature of the assay: biochemical. Also on record: Stopped-flow flavin fluorescence, FAD binding with 250 uM PPi; kon/koff from kobs1 versus flavin concentration, 25 °C, pH 7.0. The following applies: with 250 uM PPi. The protocol: (§2) Pre-steady-state kinetic experiments were performed using stopped-flow spectroscopy on an Applied Photophysics SX17.MV spectrophotometer using the Pro-Data SX software (Applied Photophysics Ltd. Leatherhead, Surrey, UK). The fluorescence of flavins was measured in a continuous assay with an excitation wavelength of 445 nm, while the emission was recovered using a >530 nm cut-off filter and the [compound left out] was set to 350 V. Then, 100 nM hFADS6 samples were mixed with samples that contained increasing concentrations of FMN or FAD (which varied in the range 0.025–1 μM), in the absence and in the presence of saturating concentrations of their respective co-substrates ATP or PPi (250 µM). All the indicated concentrations are final ones in the stopped-flow observation cell. Measurements were carried out at 25 °C in 50 mM HEPES/NaOH, 10 mM MgCl2, pH 7.0, 5 mM β-mercaptoethanol. At least three reproducible kinetic traces of changes in fluorescence were recorded for each condition and fitted to exponential equations (usually one or two exponentials were used) (2) y=∑Aie^−kobs,it where Ai and kobs,i represent the amplitude and the observed rate constant, respectively, for each of the processes (i) that contribute to the overall time-dependent fluorescence change for each experimental condition. […] When similarly evaluating the reverse reaction, kinetic traces for both WT and the D238A mutant show an initial fluorescence exponential decay of small amplitude that is followed by a linear increase of the signal (Figure 8b). We again deduce the kinetics for binding of FAD from the exponential decay, while rates for the subsequent linear fluorescence increase relate well to steady-state kinetic parameters for the transformation of FAD into FMN. Although the small amplitudes for FAD binding make it difficult to accurately determine kobs values, both parameters show a dependence on the substrate concentration (Supplementary Figure S3a,b). […] Normalized kinetic traces for the flavin fluorescence evolution upon mixing the protein with substrates for the (a) forward (ATP + FMN) and (b) reverse (PPi + FAD) reactions. Traces for WT and D238A hFADS are shown in colored grey and red scales as a function of the flavin given concentrations. Normalized signals regarding the fluorescence of the forward reaction at maximum FMN concentration are shown. Kinetic traces were obtained at 25 °C in mixtures containing 100 nM of protein and 250 µM of either ATP (a) or PPi (b) in 50 mM HEPES/NaOH, 10 mM MgCl2, pH 7.0, 5 mM β-mercaptoethanol. All concentrations are final after mixing.

Assay [7] addresses T1, hFADS6 (human FAD synthase isoform 6). Nature of the assay: biochemical. The following applies: error at least 30%, with 250 uM PPi. Set-up: Stopped-flow flavin fluorescence, FAD binding with 250 uM PPi; kon/koff from kobs1 versus flavin concentration, 25 °C, pH 7.0. The protocol: as §2

T2 sequence (Q8NFF5 268-587): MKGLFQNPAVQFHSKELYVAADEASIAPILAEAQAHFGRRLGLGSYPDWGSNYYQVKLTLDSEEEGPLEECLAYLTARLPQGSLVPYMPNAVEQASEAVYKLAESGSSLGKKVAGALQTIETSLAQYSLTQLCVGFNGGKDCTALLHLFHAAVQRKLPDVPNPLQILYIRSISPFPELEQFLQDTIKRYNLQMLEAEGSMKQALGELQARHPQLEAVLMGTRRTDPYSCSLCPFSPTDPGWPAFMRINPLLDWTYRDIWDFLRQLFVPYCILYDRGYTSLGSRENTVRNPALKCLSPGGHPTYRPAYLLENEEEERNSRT

`Nc1nc2c(ncn2[C@@H]2O[C@H](COP(=O)(O)OP(=O)(O)OP(=O)(O)O)[C@@H](O)[C@H]2O)c(=O)[nH]1` [GTP]: the “inhibition of FADS activity” value in assay [1] is “The D238A-hFADS6 was inhibited by GTP and by NADH”.
Take `Cc1cc2nc3c(=O)[nH]c(=O)nc-3n(C[C@H](O)[C@H](O)[C@H](O)COP(=O)(O)O)c2cc1C` [FMN]: the Kd in assay [2] (read-out: Kd^FMN) was 94 ± 4 nM; in assay [4] (koff/kon, read-out: Kd FMN), over 180 nM. In addition, the koff in assay [3] (read-out: koff (FMN binding)) is 0.32 ± 0.01 s⁻¹; in assay [4] (read-out: koff (FMN binding)), 0.09 s⁻¹. The figures for the kon in assay [3] (read-out: kon (FMN binding)) and in assay [4] (read-out: kon (FMN binding)) were 3.4e+06 ± 100000 M⁻¹ s⁻¹ and 550000 M⁻¹ s⁻¹, respectively.
Consider `Cc1cc2nc3c(=O)[nH]c(=O)nc-3n(C[C@H](O)[C@H](O)[C@H](O)COP(=O)(O)OP(=O)(O)OC[C@H]3O[C@@H](n4cnc5c(N)ncnc54)[C@H](O)[C@@H]3O)c2cc1C` [FAD], for which the Kd in assay [2] (read-out: Kd) is 180 ± 40 nM; in assay [5] it was over 300 nM. Further, the koff in assay [6] (read-out: koff (FAD binding)) was 0.81 ± 0.05 s⁻¹; in assay [7] (read-out: koff (FAD binding)) it was 0.35 s⁻¹. Further, the kon in assay [6] (read-out: kon (FAD binding)) turned out to be 4.5e+06 ± 600000 M⁻¹ s⁻¹; in assay [7] (read-out: kon (FAD binding)), 1.5e+06 M⁻¹ s⁻¹.
Consider `NC(=O)C1=CN([C@@H]2O[C@H](COP(=O)(O)OP(=O)(O)OC[C@H]3O[C@@H](n4cnc5c(N)ncnc54)[C@H](O)[C@@H]3O)[C@@H](O)[C@H]2O)C=CC1` [NADH], for which the “inhibition of FADS activity” value in assay [1] is “The D238A-hFADS6 was inhibited by GTP and by NADH”.
